These results are taken from patent US12180193B2, “Accelerating fibrosarcoma protein degrading compounds and associated methods of use” (Arvinas Operations, Inc., priority 2020, dated 2024).

The DC50 is the concentration giving 50% degradation. One may read the Dmax as the greatest extent of degradation seen.

For test [1], the target named is T1, BRAF V600E (Homo sapiens, UniProt P15056, V600E).
T1 construct: expressed in transfected cells
Put plainly: Cellular assay of target protein degradation, T-Rex 293 cells stably transfected with HA-BRAF_V600E (HA immunofluorescence, high content imaging). It counts as cell-based. The note with it: T-Rex 293 HA-BRAF V600E; for DC50: half maximal degradation, read-out: BRaf V600E DC50; for Dmax: maximum degradation observed. Summed up:
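Doxycycline-induced (1 ng/mL) cells were treated 24 h at 37 °C with compound at 1 μM to 0.1 nM final in 0.1% DMSO. After fixation, permeabilization and blocking, anti-HA staining was imaged by high-content reading; DC50 and Dmax (% of control) were derived.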

Test [2] has as its target T2, BRAF G466V (Homo sapiens, UniProt P15056, G466V).
T2 construct: expressed in transfected cells
Put plainly: Cellular assay of target protein degradation, T-Rex 293 cells stably transfected with HA-BRAF G466V (HA immunofluorescence, high content imaging). The note with it: T-Rex 293 HA-BRAF G466V; for DC50: half maximal degradation, read-out: BRaf G466V DC50; for Dmax: maximum degradation observed. The class given is cell-based. Summed up:
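Cells expressing doxycycline-induced (0.75 ng/mL) HA-BRAF G466V were treated with compound at 30 nM to 3 pM in 0.1% DMSO for 24 hours at 37° C. After fixation and permeabilization, HA was immunostained and quantified by high content imaging to derive DC50 and Dmax.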

A value given as a limit tells only on which side of the number the result lay.

T1 sequence (P15056 whole entry V600E): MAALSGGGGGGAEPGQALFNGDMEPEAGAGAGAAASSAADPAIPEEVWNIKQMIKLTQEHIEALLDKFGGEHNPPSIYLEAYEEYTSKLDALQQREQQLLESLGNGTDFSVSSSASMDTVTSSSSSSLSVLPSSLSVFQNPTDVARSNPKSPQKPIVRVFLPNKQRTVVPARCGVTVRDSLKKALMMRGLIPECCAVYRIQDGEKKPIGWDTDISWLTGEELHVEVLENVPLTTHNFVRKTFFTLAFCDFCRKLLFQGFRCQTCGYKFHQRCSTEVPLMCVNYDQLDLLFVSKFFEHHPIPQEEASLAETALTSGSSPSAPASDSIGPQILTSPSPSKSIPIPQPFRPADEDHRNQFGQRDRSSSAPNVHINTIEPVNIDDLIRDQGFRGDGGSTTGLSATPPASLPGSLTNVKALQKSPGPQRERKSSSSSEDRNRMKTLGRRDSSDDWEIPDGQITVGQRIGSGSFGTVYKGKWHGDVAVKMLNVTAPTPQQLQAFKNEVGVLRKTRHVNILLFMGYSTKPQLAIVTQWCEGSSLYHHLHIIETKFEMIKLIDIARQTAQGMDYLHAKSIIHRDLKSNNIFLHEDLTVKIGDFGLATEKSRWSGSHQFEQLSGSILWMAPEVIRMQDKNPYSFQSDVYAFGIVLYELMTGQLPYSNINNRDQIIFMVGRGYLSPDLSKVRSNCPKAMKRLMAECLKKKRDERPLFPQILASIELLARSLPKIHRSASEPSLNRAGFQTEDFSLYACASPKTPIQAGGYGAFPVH
T2 sequence (P15056 whole entry G466V): as the sequence (P15056 whole entry V600E) above, with G466V, E600V counted along it

For `O=C1CC[C@@H](N2Cc3cc(CC[C@@H](O)CN4CC5(C4)CN(c4ccc(-c6cnc7[nH]cc(C(=O)c8c(F)ccc(NS(=O)(=O)N9CC[C@@H](F)C9)c8F)c7c6)cc4)C5)ccc3C2=O)C(=O)N1` [Compound 328, (3R)-N-{3-[5-(4-{6-[(2R)-4-{2-[(3R)-2,6-dioxopiperidin-3-yl]-1-oxo-2,3-dihydro-1H-isoindol-5-yl}-2-hydroxybutyl]-2,6-diazaspiro[3.3]heptan-2-yl}phenyl)-1H-pyrrolo[2,3-b]pyridine-3-carbonyl]-2,4-difluorophenyl}-3-fluoropyrrolidine-1-sulfonamide], the values for the DC50 in test [1] and in test [2] were 5 to 50 nM and 1 to 10 nM, respectively. Further, the Dmax was 35 to 70% in test [1] and above 70% in test [2].

`O=C1CCC(N2Cc3cc(N4CCC(CN5CC[C@H]6[C@@H](C5)CN6c5ccc(-c6cnc7[nH]cc(C(=O)c8c(F)ccc(NS(=O)(=O)N9CC[C@@H](F)C9)c8F)c7c6)cc5)CC4)ccc3C2=O)C(=O)N1` (stereo partly drawn) [Compound 329, (3R)-N-[3-(5-{4-[(1S,6S)-3-({1-[2-(2,6-dioxopiperidin-3-yl)-1-oxo-2,3-dihydro-1H-isoindol-5-yl]piperidin-4-yl}methyl)-3,7-diazabicyclo[4.2.0]octan-7-yl]phenyl}-1H-pyrrolo[2,3-b]pyridine-3-carbonyl)-2,4-difluorophenyl]-3-fluoropyrrolidine-1-sulfonamide]: in test [1], the DC50 was in the range of 5 to 50 nM and the Dmax was 35 to 70%. Also, in test [2], the DC50 fell in the range of 1 to 10 nM and the Dmax was above 70%.

As for `O=C1CCC(N2Cc3cc(N4CCC(CN5CC(C6CN(c7ccc(-c8cnc9[nH]cc(C(=O)c%10c(F)ccc(NS(=O)(=O)N%11CC[C@@H](F)C%11)c%10F)c9c8)cc7)C6)C5)CC4)ccc3C2=O)C(=O)N1` (stereo partly drawn) [Compound 330, (3R)-N-[3-(5-{4-[1′-({1-[2-(2,6-dioxopiperidin-3-yl)-1-oxo-2,3-dihydro-1H-isoindol-5-yl]piperidin-4-yl}methyl)-[3,3′-biazetidin]-1-yl]phenyl}-1H-pyrrolo[2,3-b]pyridine-3-carbonyl)-2,4-difluorophenyl]-3-fluoropyrrolidine-1-sulfonamide], the DC50 in test [1] lay in the range of 5 to 50 nM; in test [2] it was 1 to 10 nM. Moreover, the results for the Dmax in test [1] and in test [2] were 35 to 70% and above 70%, respectively.

Take `COc1cc(OCCCCN2CCN(c3ccc(-c4cnc5[nH]cc(C(=O)c6c(F)ccc(NS(=O)(=O)N7CC[C@@H](F)C7)c6F)c5c4)cc3)CC2)cc2c1C(=O)N(C1CCC(=O)NC1=O)C2` (stereo partly drawn) [Compound 331, (3R)-N-[3-(5-{4-[4-(4-{[2-(2,6-dioxopiperidin-3-yl)-7-methoxy-1-oxo-2,3-dihydro-1H-isoindol-5-yl]oxy}butyl)piperazin-1-yl]phenyl}-1H-pyrrolo[2,3-b]pyridine-3-carbonyl)-2,4-difluorophenyl]-3-fluoropyrrolidine-1-sulfonamide]: in test [1], the DC50 was in the range of 5 to 50 nM and the Dmax was 35 to 70%. Also, in test [2], the DC50 was 1 to 10 nM and the Dmax was in the range of 35 to 70%.

Consider `O=C1CCC(N2Cc3cc(CCCCN4CCC(c5ccc(-c6cnc7[nH]cc(C(=O)c8c(F)ccc(NS(=O)(=O)N9CC[C@@H](F)C9)c8F)c7c6)cc5)CC4)ccc3C2=O)C(=O)N1` (stereo partly drawn) [Compound 332, (3R)-N-(3-{5-[4-(1-{4-[2-(2,6-dioxopiperidin-3-yl)-1-oxo-2,3-dihydro-1H-isoindol-5-yl]butyl}piperidin-4-yl)phenyl]-1H-pyrrolo[2,3-b]pyridine-3-carbonyl}-2,4-difluorophenyl)-3-fluoropyrrolidine-1-sulfonamide], for which the DC50 in test [1] was 5 to 50 nM; in test [2], 1 to 10 nM. Further, the values for the Dmax in test [1] and in test [2] were 35 to 70% and above 70%, respectively.

Consider `O=C1CCC(N2Cc3cc(N4CCN(CC5CCN(c6ccc(-c7cnc8[nH]cc(C(=O)c9c(F)ccc(NS(=O)(=O)N%10CC[C@@H](F)C%10)c9F)c8c7)cc6)CC5)CC(F)(F)C4)ccc3C2=O)C(=O)N1` (stereo partly drawn) [Compound 333, (3R)-N-[3-(5-{4-[4-({4-[2-(2,6-dioxopiperidin-3-yl)-1-oxo-2,3-dihydro-1H-isoindol-5-yl]-6,6-difluoro-1,4-diazepan-1-yl}methyl)piperidin-1-yl]phenyl}-1H-pyrrolo[2,3-b]pyridine-3-carbonyl)-2,4-difluorophenyl]-3-fluoropyrrolidine-1-sulfonamide], for which, in test [1], the DC50 is above 500 nM. In test [2], the DC50 fell in the range of 1 to 10 nM and the Dmax is below 35%.

As for `O=C1CCC(N2Cc3cc(N4CC(CN5CCC(C6(c7ncc(-c8cnc9[nH]cc(C(=O)c%10c(F)ccc(NS(=O)(=O)N%11CC[C@@H](F)C%11)c%10F)c9c8)cn7)CC6)CC5)C4)ccc3C2=O)C(=O)N1` (stereo partly shown) [Compound 334], in test [1], the DC50 lay in the range of 50 to 500 nM and the Dmax was 35 to 70%. In test [2], the DC50 was in the range of 1 to 10 nM and the Dmax is above 70%.

As to `O=C1CC[C@H](N2Cc3cc(N4CC[C@@H](COc5ccc(-c6cnc7[nH]cc(C(=O)c8c(F)ccc(NS(=O)(=O)N9CC[C@@H](F)C9)c8F)c7c6)cc5)C4)ccc3C2=O)C(=O)N1` [Compound 335, (3R)-N-{3-[5-(4-{[(3R)-1-{2-[(3S)-2,6-dioxopiperidin-3-yl]-1-oxo-2,3-dihydro-1H-isoindol-5-yl}pyrrolidin-3-yl]methoxy}phenyl)-1H-pyrrolo[2,3-b]pyridine-3-carbonyl]-2,4-difluorophenyl}-3-fluoropyrrolidine-1-sulfonamide], the values for the half-maximal degradation concentration (DC50) in test [1] and in test [2] were above 500 nM and above 30 nM, respectively.

For `O=C1CC[C@@H](N2Cc3cc(N4CC[C@@H](COc5ccc(-c6cnc7[nH]cc(C(=O)c8c(F)ccc(NS(=O)(=O)N9CC[C@@H](F)C9)c8F)c7c6)cc5)C4)ccc3C2=O)C(=O)N1` [Compound 336, (3R)-N-{3-[5-(4-{[(3R)-1-{2-[(3R)-2,6-dioxopiperidin-3-yl]-1-oxo-2,3-dihydro-1H-isoindol-5-yl}pyrrolidin-3-yl]methoxy}phenyl)-1H-pyrrolo[2,3-b]pyridine-3-carbonyl]-2,4-difluorophenyl}-3-fluoropyrrolidine-1-sulfonamide], in test [1], the DC50 is above 500 nM and the Dmax fell in the range of 35 to 70%. For the same compound, the DC50 in test [2] is above 30 nM.

Regarding `Cn1c(=O)n(C2CCC(=O)NC2=O)c2cccc(C3CCN(CC4CCN(c5ccc(-c6cnc7[nH]cc(C(=O)c8c(F)ccc(NS(=O)(=O)N9CC[C@@H](F)C9)c8F)c7c6)cc5)CC4)CC3)c21` (stereo partly drawn) [Compound 337, (3R)—N-(3-(5-(4-(4-((4-(1-(2,6-dioxopiperidin-3-yl)-3-methyl-2-oxo-2,3-dihydro-1H-benzo[d]imidazol-4-yl)piperidin-1-yl)methyl)piperidin-1-yl)phenyl)-1H-pyrrolo[2,3-b]pyridine-3-carbonyl)-2,4-difluorophenyl)-3-fluoropyrrolidine-1-sulfonamide], in test [1], the DC50 is 5 to 50 nM and the maximal degradation (Dmax) lay within 35 to 70%. For the same compound, in test [2], the DC50 was 1 to 10 nM and the Dmax is above 70%.

With `CCCS(=O)(=O)Nc1ccc(F)c(-n2cc(-c3cncnc3)c3nc(N(C)C4CCN(C(=O)CCOCCOCCOCCOCCNc5cccc6c5C(=O)N(C5CCC(=O)NC5=O)C6=O)CC4)ccc32)c1F` (stereo not shown) [Compound 338], in test [1], the DC50 lay within 50 to 500 nM and the Dmax fell in the range of 35 to 70%. Moreover, in test [2], the DC50 fell in the range of 10 to 30 nM and the Dmax was in the range of 35 to 70%.

With `O=C1CC[C@H](NC(=O)c2ccc(N3CCC(CN4CCN(c5ccc(-c6cnc7[nH]cc(C(=O)c8c(F)ccc(NS(=O)(=O)N9CC[C@@H](F)C9)c8F)c7c6)cc5)CC4)CC3)cc2F)C(=O)N1` [Compound 339, 4-(4-{[4-(4-{3-[2,6-difluoro-3-({[(3R)-3-fluoropyrrolidin-1-yl]sulfonyl}amino)benzoyl]-1H-pyrrolo[2,3-b]pyridin-5-yl}phenyl)piperazin-1-yl]methyl}piperidin-1-yl)-N-[(3S)-2,6-dioxopiperidin-3-yl]-2-fluoorobenzamide], in test [1], the DC50 lay within 5 to 50 nM and the Dmax was 35 to 70%. Also, in test [2], the DC50 was 1 to 10 nM and the Dmax is above 70%.

`O=C1CC[C@@H](NC(=O)c2ccc(N3CCC(CN4CCN(c5ccc(-c6cnc7[nH]cc(C(=O)c8c(F)ccc(NS(=O)(=O)N9CC[C@@H](F)C9)c8F)c7c6)cc5)CC4)CC3)cc2F)C(=O)N1` [Compound 340]: in test [1], the DC50 lay in the range of 50 to 500 nM and the Dmax was below 35%. In addition, in test [2], the DC50 is 1 to 10 nM and the Dmax fell in the range of 35 to 70%.

Turning to `O=C1CC[C@H](NC(=O)c2ccc(N3CCN(CC4CCN(c5ccc(-c6cnc7[nH]cc(C(=O)c8c(F)ccc(NS(=O)(=O)N9CC[C@@H](F)C9)c8F)c7c6)cc5)CC4)CC3)cc2F)C(=O)N1` [Compound 341, 4-(4-{[1-(4-{3-[2,6-difluoro-3-({[(3R)-3-fluoropyrrolidin-1-yl]sulfonyl}amino)benzoyl]-1H-pyrrolo[2,3-b]pyridin-5-yl}phenyl)piperidin-1-yl]methyl}piperazin-1-yl)-N-[(3S)-2,6-dioxopiperidin-3-yl]-2-fluorobenzamide], in test [1], the DC50 fell in the range of 5 to 50 nM and the Dmax lay in the range of 35 to 70%. Moreover, in test [2], the DC50 lay in the range of 1 to 10 nM and the Dmax is above 70%.
